Source: publication PMC6413231, “o-Vanillin Derived Schiff Bases and Their Organotin(IV) Compounds: Synthesis, Structural Characterisation, In-Silico Studies and Cytotoxicity” (International Journal of Molecular Sciences, 2019)

Tests used:
[1] = test system: EJ-28 (muscle invasive bladder) cancer cells; assay: MTT cytotoxicity assay, EJ-28; assay type: cell-based, human; settings: EJ-28 cells, 72 h, ± standard error, read-out: Growth Inhibition Concentration, GI50
Experimental: (§1) The Schiff bases and their organotin(IV) compounds were screened for in vitro cytotoxicity against a panel of 12 cancer cell lines: EJ-28 (muscle invasive bladder), RT-112 (minimum-invasive bladder), HT29 (colon), U87 and SJ-G2 (glioblastoma), MCF-7 (breast), A2780 (ovarian), H460 (lung), A431 (skin), DU145 (prostate), BE2-C (neuroblastoma), MIA (pancreatic) and one normal breast cell line (MCF-10A) using the MTT metabolic assay (Figure 6). After 72 h of incubation, a dose-dependent […] effect towards the cancer cell lines was measured at very low micromolar (µM) concentrations of the compounds. The growth inhibition concentration of the Schiff bases and their organotin(IV) compounds required to inhibit 50% cell proliferation relative to the cells that were treated with DMSO (control) are given in Table 2. The stability of these compounds was assessed in DMSO as well as in a mixture of DMSO-H2O. The absorbance obtained from UV-vis spectroscopy analysis was monitored for 72 h, and an unchanged pattern in the spectra was indicative that the compounds were stable in both the solvent systems tested.
(§2) The inhibitory effect of the synthesised compounds on the growth of bladder (EJ-28 and RT-112) cancer cells was evaluated by MTT assay. […] RT-112 and EJ-28, human bladder cancer cell lines used in this study (ATCC, Manassas, VA, USA) were cultured in RPMI-1640 (High glucose) medium supplemented with 10% fetal bovine serum containing 1% penicillin. The cells were cultured at 37 °C in a humidified atmosphere of 5% CO2 in air. Cells were seeded in 96-well plates at 6000 cells per well for 24 h, then they were treated with different concentrations of compounds for 72 h. The medium was subsequently removed and the wells were washed with 200 µL of phosphate buffer saline. Aliquots of 20 µL of 3-(4,5-dimethylthiazol-2-yl)-2,5-diphenyltetrazolium bromide (MTT) was added to each well and incubated for 4 h at 37 °C. Aliquots of 200 µL of media was then removed from each well and 200 µL of DMSO was added. Optical density (OD) was measured using an ELISA plate reader at 570 nm. Control wells (100% viability), containing media and DMSO, were included in all the experiments. All data points represented an average of triplicate assays. Cytotoxicity was expressed as CD50, i.e., the concentration that reduced the absorbance of treated cells by 50% with reference to the control (untreated cells).

[2] = test system: RT-112 (minimum-invasive bladder) cancer cells; assay: MTT cytotoxicity assay, RT-112; assay type: cell-based, human; settings: RT-112 cells, 72 h, ± standard error, read-out: Growth Inhibition Concentration, GI50
Experimental: as §1, §2

[3] = test system: HT29 (colon) cancer cells; assay: MTT growth inhibition assay, HT29; assay type: cell-based; settings: 72 h, ± standard error, read-out: Growth Inhibition Concentration, GI50
Experimental: as §1
(§3) For HT29 (colon), U87 and SJ-G2 (glioblastoma), MCF-7 (breast), A2780 (ovarian), H460 (lung), A431 (skin), Du145 (prostate), BE2-C (neuroblastoma), MIA (pancreas) cell lines and one normal breast cell line, MCF-10A (normal breast), the MTT assays were performed using the following method:
(§4) Stock solutions were prepared as follows and stored at −20 °C: Trial compounds were stored as 10 mM solutions in DMSO. All cell lines were cultured in a humidified atmosphere 5% CO2 at 37 °C. The cancer cell lines were maintained in Dulbecco’s modified Eagle’s medium (DMEM) (Trace Biosciences) supplemented with 10% foetal bovine serum, 10 mM sodium bicarbonate, penicillin (100 IU/mL), streptomycin (100 μg/mL) and glutamine (4 mM). The normal cell line, MCF-10A was cultured in DMEM:F12 (1:1) cell culture media, 5% heat inactivated horse serum, supplemented with penicillin (50 IU/mL), streptomycin (50 μg/mL), 20mM Hepes, L-glutamine (2 mM), epidermal growth factor (20 ng/mL), hydrocortisone (500 ng/mL), cholera toxin (100 ng/mL) and insulin (10 μg/mL).
(§5) Cells in logarithmic growth were transferred to 96-well plates. Cytotoxicity was determined by plating cells in duplicate in 100 μL medium at a density of 2500–4000 cells/well. On day 0 (24 h after plating), when the cells were in logarithmic growth, 100 μL medium, with or without the test agent, was added to each well. After 72 h drug exposure, growth inhibitory effects were evaluated using the MTT (3-[4,5-dimethylthiazol-2-yl]-2,5-diphenyltetrazolium bromide) assay and absorbance read at 540 nm. Percentage growth inhibition was determined at a fixed drug concentration of 25 μM. A value of 100% was indicative of complete cell growth inhibition. Those analogues showing appreciable percentage growth inhibition underwent further dose-response analysis allowing for the calculation of a GI50 value. This value is the drug concentration at which cell growth is 50% inhibited based on the difference between the optical density values on day 0 and those at the end of drug exposure.

[4] = test system: U87 (glioblastoma) cancer cells; assay: MTT growth inhibition assay, U87; assay type: cell-based; settings: 72 h, ± standard error, read-out: Growth Inhibition Concentration, GI50
Experimental: as §1, §3, §4, §5

[5] = test system: A2780 (ovarian) cancer cells; assay: MTT growth inhibition assay, A2780; assay type: cell-based; settings: 72 h, ± standard error, read-out: Growth Inhibition Concentration, GI50
Experimental: as §1, §3, §4, §5

H460 (lung) cancer cells = assay: MTT growth inhibition assay, H460; assay type: cell-based; settings: 72 h, ± standard error, read-out: Growth Inhibition Concentration, GI50
Experimental: as §1, §3, §4, §5

A431 (skin) cancer cells = assay: MTT growth inhibition assay, A431; assay type: cell-based; settings: 72 h, ± standard error, read-out: Growth Inhibition Concentration, GI50
Experimental: as §1, §3, §4, §5

[6] = test system: Du145 (prostate) cancer cells; assay: MTT growth inhibition assay, Du145; assay type: cell-based; settings: 72 h, ± standard error, read-out: Growth Inhibition Concentration, GI50
Experimental: as §1, §3, §4, §5

[7] = test system: MCF-10A (normal breast) cell line; assay: MTT growth inhibition assay, MCF10A; assay type: cell-based; settings: MCF10A normal breast cells, 72 h, ± standard error, read-out: Growth Inhibition Concentration, GI50
Experimental: as §1, §3, §4, §5

| Substance | GI50 [1] | GI50 [2] | GI50 [3] | GI50 [4] | GI50 [5] | GI50 (H460 (lung) cancer cells) | GI50 (A431 (skin) cancer cells) | GI50 [6] | GI50 [7] |
| --- | --- | --- | --- | --- | --- | --- | --- | --- | --- |
| Diphenyltin(IV) [Ph2Sn(S2MoVa), Diphenyltin(IV) [S-2-Methybenzyl-β-N-(2-hydroxy-3-methoxybenzylmethylene) dithiocarbazate]] | 350 ± 50 nM | 310 ± 50 nM | 1800 ± 130 nM | 4400 ± 1700 nM | 230 ± 10 nM | 2800 nM | 2100 ± 90 nM | 1700 ± 70 nM | 1200 ± 300 nM |
| Diphenyltin(IV) [Ph2Sn(S4MoVa), Diphenyltin(IV) [S-4-Methybenzyl-β-N-(2-hydroxy-3-methoxybenzylmethylene) dithiocarbazate]] | 3100 ± 370 nM | 1700 ± 490 nM | 870 ± 220 nM | 1300 ± 400 nM | 350 ± 70 nM | 1900 ± 230 nM | 1400 ± 380 nM | 1500 ± 310 nM | 1100 ± 370 nM |
